Laboratory results published in patent publication US9161965B2, “Treatment for epilepsy” (NoNO Inc., priority 2008, dated 2015).
“Also recorded” adds a separate entry of the source.

Tests used:
N-type calcium channels = N-type calcium channels (Homo sapiens, UniProt Q00975); details: cited from earlier work
[1] = tested on: male Wistar rats with pilocarpine-induced status epilepticus; assay: Lateral ventricle size after SE, Nissl (cresyl violet) stained brain sections; type: in vivo, rat; details: treated at 3 hours post-SE (0.3 and 3 nmol/gm); 14 days post-SE
Experimental: Following pilocarpine and Tat-NR2B9c administration, and fixing of brain sections, as described above, every 6th section was used for Niss1 staining with cresyl violet. Sections were mounted and allowed to air dry on gelatin coated slides. The sections were rehydrated in an alcohol series at 100%, 95%, 70%, and 50% each for 5 minutes. The sections are then placed in water for 1 minute, followed by the Cresyl Violet Stain for 20 to 30 minutes. Sections are rinsed (30 seconds×2) in water, and dehydrated in an alcohol series at 50% for 5 minutes (or less), 70% for 5 minutes (or less), 95% for 5 minutes (or less), 100% for 5 minutes (or less), and 100% for 5 minutes (or less). Differentiation occurs maximally at the 50% and 70% alcohol gradients. Sections were cleared in xylene for 5 minutes and coverslipped with Permount, and viewed, e.g., under 40× magnification.

[2] = tested on: rats with status epilepticus induced by the RLDP procedure; assay: Elevated plus maze (exploratory behaviour) at 8 weeks post-SE; type: in vivo, rat; details: administered 3 hours post-SE, 5 minutes on maze
Experimental: (§1) We investigated possible behavioral effects of 60 min SE induced with the RLDP procedure. Visual-spatial memory was investigated with the Morris water maze (MWM) at 8 weeks post-SE to detect chronic cognitive impairment. The MWM is of particular usefulness with studies involving therapeutic agents, since the severity of neurodegeneration in the anterior CA1 region is strongly correlated with performance (escape latency) (Clasussen et al, 2005). […] All groups contained at least 6 animals.
The elevated plus maze is used to investigate exploratory behaviour. At 8 weeks post-SE, animals were placed on the elevated plus maze for 5 minutes and videotaped. […] Furthermore, SE animals had reduced frequency of lookouts into the open arm and rearing episodes when compared to controls (FIGS. 12 E & F).

[3] = tested on: rats with status epilepticus induced by the RLDP procedure; assay: Morris water maze (visual-spatial memory) at 8 weeks post-SE; type: in vivo, rat; details: administered 3 hours post-SE
Experimental: as §1
In our study animals were trained on the MWM task for 14 consecutive days, with 6 trials completed daily. […] No SE animals, however, learned the task within 6 consecutive days, with no further improvement in escape latency thereafter.

animal models of stroke = details: applied before or 1 hour after a stroke; cited from earlier work
[4] = stroke indication; cited from earlier work
[5] = tested on: male Wistar rats with pilocarpine-induced status epilepticus; assay: Neuron loss (NeuN-positive cell counts) after status epilepticus in the lithium-pilocarpine rat model
Experimental: Male Wistar rats between 350 to 400 grams were pretreated with lithium chloride (ip; 3 mEq/kg) 17 to 24 hours before systemic injection of the chemoconvulsant pilocarpine. Pilocarpine (ip; 10 mg/kg) was administered every 30 minutes until onset of status epilepticus (SE), which was defined as a loss of consciousness and continuous overt seizure activity. […] Rats generally developed SE shortly thereafter. […] SE was terminated at 1, 3 and 5 hours following onset of SE with diazepam (ip; 4 mg/kg).
Animals were anaesthetized with ketamine and Romptum, and transcardially perfused with paraformaldehyde (PFA; 4% in 0.1M phosphate buffer, pH 7.4) 2 weeks after SE induction. Brains were removed, post-fixed overnight in PFA, and then equilibrated in 30% sucrose in PBS. Brains were then frozen at −35° C. in methylbutane and stored until further use at −70° C. in scintillation vials containing frozen 30% sucrose in PBS to prevent freezer drying. The brains were coronally sectioned at 40 μm using a freezing microtome and stored at −20° C. in 24-well plates containing antifreeze solution (15% glucose, 30% ethylene glycol, 50 mMol phosphate buffer; pH 7.4).
For each animal, neuronal cells were quantified by immunohistochemical staining with NeuN, a neuronal cell specific antibody.

Chain of N-type calcium channels (Q00975 whole entry): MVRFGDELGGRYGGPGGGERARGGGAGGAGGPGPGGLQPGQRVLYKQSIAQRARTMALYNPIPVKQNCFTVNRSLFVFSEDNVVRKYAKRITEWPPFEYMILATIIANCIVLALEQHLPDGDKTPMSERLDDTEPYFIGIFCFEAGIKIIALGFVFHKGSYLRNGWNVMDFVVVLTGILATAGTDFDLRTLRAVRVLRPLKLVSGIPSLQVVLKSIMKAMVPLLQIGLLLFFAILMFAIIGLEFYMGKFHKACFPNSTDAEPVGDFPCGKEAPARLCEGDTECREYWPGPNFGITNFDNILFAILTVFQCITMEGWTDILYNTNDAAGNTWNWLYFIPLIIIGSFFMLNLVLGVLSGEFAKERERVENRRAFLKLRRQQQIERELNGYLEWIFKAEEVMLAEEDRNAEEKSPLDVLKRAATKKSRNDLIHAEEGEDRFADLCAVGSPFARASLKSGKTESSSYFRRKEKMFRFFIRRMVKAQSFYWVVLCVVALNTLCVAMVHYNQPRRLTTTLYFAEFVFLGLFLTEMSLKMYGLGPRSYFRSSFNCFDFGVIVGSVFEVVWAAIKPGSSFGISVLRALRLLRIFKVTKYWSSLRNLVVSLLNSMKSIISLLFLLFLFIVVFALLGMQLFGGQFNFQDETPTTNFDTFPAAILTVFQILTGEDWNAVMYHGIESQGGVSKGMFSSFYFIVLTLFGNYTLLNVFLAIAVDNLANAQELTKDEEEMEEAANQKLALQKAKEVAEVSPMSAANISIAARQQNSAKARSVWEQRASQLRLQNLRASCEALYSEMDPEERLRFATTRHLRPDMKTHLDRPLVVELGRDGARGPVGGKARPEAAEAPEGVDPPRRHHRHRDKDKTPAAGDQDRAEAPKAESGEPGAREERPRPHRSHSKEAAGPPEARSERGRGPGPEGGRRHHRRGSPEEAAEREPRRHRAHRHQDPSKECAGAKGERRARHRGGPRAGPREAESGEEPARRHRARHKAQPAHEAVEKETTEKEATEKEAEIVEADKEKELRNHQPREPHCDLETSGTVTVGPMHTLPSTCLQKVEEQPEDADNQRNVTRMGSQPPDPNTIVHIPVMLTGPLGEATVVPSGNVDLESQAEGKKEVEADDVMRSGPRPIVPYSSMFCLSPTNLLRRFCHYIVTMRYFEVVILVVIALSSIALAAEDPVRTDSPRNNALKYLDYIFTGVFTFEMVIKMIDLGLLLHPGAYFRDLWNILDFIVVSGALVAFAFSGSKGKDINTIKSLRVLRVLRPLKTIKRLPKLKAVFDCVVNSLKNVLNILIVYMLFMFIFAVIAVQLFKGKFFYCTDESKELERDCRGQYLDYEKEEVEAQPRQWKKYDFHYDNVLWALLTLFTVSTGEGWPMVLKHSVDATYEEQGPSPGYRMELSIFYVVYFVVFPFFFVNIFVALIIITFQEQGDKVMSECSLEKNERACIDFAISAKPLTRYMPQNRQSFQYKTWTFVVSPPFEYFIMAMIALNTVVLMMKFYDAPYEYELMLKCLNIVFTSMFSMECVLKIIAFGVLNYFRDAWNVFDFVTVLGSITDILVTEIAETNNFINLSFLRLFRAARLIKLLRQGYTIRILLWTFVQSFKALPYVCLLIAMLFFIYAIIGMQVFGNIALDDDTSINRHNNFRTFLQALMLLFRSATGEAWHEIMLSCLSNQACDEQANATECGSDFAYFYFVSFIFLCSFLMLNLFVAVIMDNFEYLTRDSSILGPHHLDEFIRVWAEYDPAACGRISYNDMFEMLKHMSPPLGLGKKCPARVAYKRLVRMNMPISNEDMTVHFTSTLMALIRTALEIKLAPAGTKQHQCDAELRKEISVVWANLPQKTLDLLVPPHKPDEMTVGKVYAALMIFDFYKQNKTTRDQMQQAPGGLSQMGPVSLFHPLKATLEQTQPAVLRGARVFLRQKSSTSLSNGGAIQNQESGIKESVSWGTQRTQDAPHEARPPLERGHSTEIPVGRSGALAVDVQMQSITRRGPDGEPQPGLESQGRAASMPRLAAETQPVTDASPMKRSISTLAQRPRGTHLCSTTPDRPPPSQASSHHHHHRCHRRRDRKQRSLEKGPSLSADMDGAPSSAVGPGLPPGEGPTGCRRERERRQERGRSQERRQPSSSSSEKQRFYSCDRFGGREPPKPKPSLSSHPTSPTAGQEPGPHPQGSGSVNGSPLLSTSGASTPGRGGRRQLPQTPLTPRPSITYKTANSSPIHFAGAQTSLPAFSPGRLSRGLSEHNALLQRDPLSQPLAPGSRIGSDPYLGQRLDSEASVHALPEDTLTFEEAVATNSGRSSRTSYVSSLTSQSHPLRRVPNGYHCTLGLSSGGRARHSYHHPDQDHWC

| Sequence | Binding to and inhibition of N-type calcium channels (N-type calcium channels) | Size of lateral ventricles following SE [1] | Effects of SE on exploratory behaviour / cognitive impairment, elevated plus maze [2] | Escape latency performance, Morris water maze [3] | Neuroprotection in animal models of stroke (animal models of stroke) | Adverse events / side effects in phase I clinical trials [4] | Neuroprotection / neuron loss (NeuN-positive cells), peptide administered during status epilepticus ([5]; administered 10 minutes following initiation of SE, 0.3, 3 and 9 nmol/gm, 7 days after SE) | NeuN-immunostaining of coronal sections of the dorsal hippocampus (histochemical visualization) ([5]; administered 3 hours following the insult, 2.5x and 40x magnification) | Neuroprotection / neuron loss (NeuN-positive cells), anterior (dorsal) CA1 region of the hippocampus ([5]; administered via femoral vein 3 hours after termination of SE, 0.3 or 3 nmol/gm, 14 days recovery) | Number of surviving neuronal cells near the subicular border of the CA1 region ([5]; compared to saline-treated animals) | Neuroprotection in the CA4 region ([5]; rat, in vivo) |
| --- | --- | --- | --- | --- | --- | --- | --- | --- | --- | --- | --- |
| YGRKKRRQRRR [standard tat peptide] | binds to and inhibits N-type calcium channels | – | – | – | – | – | – | – | – | – | – |
| YGRKKRRQRRRKLSSIESDV (synthetic chimeric PDZ-binding ligand (PL) motif active peptide linked to HIV TAT internalization peptide, Tat-NR2B9c-(SDV)) | – | reduced them to the size found in rats who had not been given pilocarpine; also recorded: dramatic reduction of lateral ventricle size; also recorded: noticeably smaller lateral ventricles | decreased these effects of SE on exploratory behavior; also recorded: reduces the cognitive impairment caused by status epilepticus | improves escape latency performance, especially during the initial 5 days of acquisition learning | highly neuroprotective | without serious adverse events | did not decrease neuron loss; also recorded: comparable to neuron loss in untreated rats; also recorded: not during | increased NeuN-immunostaining; also recorded: This effect was reversed | rescued neuron loss in a dose-dependent manner; also recorded: especially protective; also recorded: conferred neuroprotection; also recorded: neuroprotective in the anterior CA1 region of the hippocampus; also recorded: neuroprotective when administered after; also recorded: dose-dependent neuroprotection | increased the number of surviving neuronal cells | confers neuroprotection |
